The values below are quoted from earlier work in US20100189771A1, “FIXED RATIO DRUG COMBINATION TREATMENTS FOR SOLID TUMORS” (priority 2005, published 2010).

SMILES strings stand for the structures. Where two headings read alike, the source gives them in different places.

The conditions of the data set: conventional irinotecan.

As for `CCc1c2c(nc3ccc(OC(=O)N4CCC(N5CCCCC5)CC4)cc13)-c1cc3c(c(=O)n1C2)COC(=O)[C@]3(O)CC` [Irinotecan, irinotecan], the “IRINOTECAN AUC” value is on record as 18,091 ng-h/ml (dose 240 mg/m^2, N=3) and 22,998 ng-h/ml (dose 340 mg/m^2, N=6). In addition, the “IRINOTECAN Cmax” value was 2,810 ng/ml (dose 240 mg/m^2, N=3, patients' plasma) and 3,392 ng/ml (dose 340 mg/m^2, N=6).
